Patent US12145920B2, “Lanthionine c-like protein 2 ligands, cells prepared therewith, and therapies using same” (NImmune Biopharma, Inc., priority 2019, dated 2024)

Assays:
[1] = test system: colonic CD4+ T cells from Mdr1a-/- mice; assay: Gene expression in colonic CD4+ T cells of treated Mdr1a-/- mice; format: in vivo; conditions: oral treatment, 10 weeks of age
From the text: To identify signaling pathways modulated by BT-63 in vivo, we will isolate colonic CD4+ T cells from vehicle- and BT-63-treated Mdr1a−/− mice at presentation of colitis at 10 weeks of age. […] Meanwhile, expression of Pten and Ph1pp1 will increase. […] Cells will also be differentiated in the presence of inhibitors for PTEN (SF1670) or STATS (STAT5i). In the Treg differentiation media containing both IL-2 or IL-12, the addition of STAT5i will prevent the effects of BT-63 on CD25+ FOXP3+ and CD25+ Tbet+ cells. In contrast, SF1670 only will prevent effects of BT-63 on CD25+ Tbet+ cells in IL-2 containing media.

[2] = test system: resiquimod-treated C57BL6 mice; assay: TLR7/9 (resiquimod) induced mouse model of SLE; format: in vivo
Procedure: Resiquimod model. Resiquimod was prepared in a 1:3 ethanol:acetone mixture to provide 85 micrograms of resiquimod to each mouse. Resiquimod solution was well mixed and applied to the ear of C57BL6 mice three times weekly over a 2-week period. Mice were monitored for signs of disease daily.
Treatment administration. BT-63 was prepared within a 0.5% methylcellulose (12-15 cP) solution. Dosage used was 20 mg/kg delivered once daily. Mice were weighed on a weekly basis to update dosage formulation. Dosage was calculated based off mean body weights for each gender. Oral dosage was delivered by orogastric gavage of dosage in 0.2 mL volume.
Immunological analysis. Blood was collected by cardiac puncture into EDTA tube. Plasma was separated following centrifugation and assayed by ELISA for anti-dsDNA antibodies. Urine was collected for assay for albumin content to test for kidney function.
Spleens were excised, crushed and filtered to provide a cellular suspension. Red blood cells were lysed. Cells were labeled with mixtures of extracellular (CD45, CD3, CD4, CD8, CD19, NK1.1, CD25, F4/80, CD11b, Gr1, CX3CR1, CD64) and intracellular (Tbet, BCL6, FOXP3, IFNγ, IL6, IL10) antibodies in a sequential live staining in 96-well plates in preparation for flow cytometry. Data was captured on a BD FACS Celesta and analyzed using FacsDiva.

[3] = 2 weeks of oral treatment, 20 mg/kg

## O=C(CN1CCN(C(=O)c2cccc(-c3nc4ccccc4[nH]3)n2)CC1)c1ccccc1 [BT-63, 2-(4-(6-(1H-benzo[d]imidazol-2-yl)picolinoyl)piperazin-1-yl)-1-phenylethanone]
[1]
  expression of Foxo1: significantly higher expression
  expression of Ph1pp1: increase
  expression of Pten: increase
  expression of Stat5a: significantly higher expression
[2]; [3]
  concentration of anti-dsDNA antibodies in plasma: reduces
  urine albumin content: reduction
[2]; spleen, 2 weeks, 20 mg/kg oral
  IFNγ+ CD8+ T cells: reduced
  IL6+ cells: reduced
